Experimental data taken from PubChem BioAssay (NCI).
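Following 48 hours of exposure in 96-well plates, responses at five concentrations were used to interpolate endpoints linearly. GI50 = concentration required for 50% inhibition of growth. TGI is the concentration that stops growth completely.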

Assays:
Assay in all cases: DTP human tumour cell line panel, 48 h; in the data active = GI50 below about 0.43 µM; inactive = the rest
M14 melanoma = test system: M14 melanoma
NCI-H460 lung = test system: NCI-H460 lung
DU-145 prostate = test system: DU-145 prostate
CAKI-1 renal = test system: CAKI-1 renal
KM12 colon = test system: KM12 colon
K-562 leukemia = test system: K-562 leukemia
EKVX NSCLC = test system: EKVX NSCLC
SNB-19 CNS = test system: SNB-19 CNS
OVCAR-3 ovarian = test system: OVCAR-3 ovarian
A498 renal = test system: A498 renal
RPMI-8226 leukemia = test system: RPMI-8226 leukemia
SK-MEL-2 melanoma = test system: SK-MEL-2 melanoma
ACHN renal = test system: ACHN renal
NCI-H23 lung = test system: NCI-H23 lung
SK-OV-3 ovarian = test system: SK-OV-3 ovarian
OVCAR-8 ovarian = test system: OVCAR-8 ovarian
SNB-75 CNS = test system: SNB-75 CNS
HCC-2998 colon = test system: HCC-2998 colon
SK-MEL-5 melanoma = test system: SK-MEL-5 melanoma
NCI-H522 lung = test system: NCI-H522 lung
HOP-62 NSCLC = test system: HOP-62 NSCLC
BT-549 breast = test system: BT-549 breast
SF-268 CNS = test system: SF-268 CNS
RXF 393 renal = test system: RXF 393 renal
SF-295 CNS = test system: SF-295 CNS
LOX IMVI melanoma = test system: LOX IMVI melanoma
IGROV1 ovarian = test system: IGROV1 ovarian
SR leukemia = test system: SR leukemia
T-47D breast = test system: T-47D breast
U251 CNS = test system: U251 CNS
NCI-H226 lung = test system: NCI-H226 lung
HS 578T breast = test system: HS 578T breast
TK-10 renal = test system: TK-10 renal
UACC-257 melanoma = test system: UACC-257 melanoma
HCT-116 colon = test system: HCT-116 colon
786-0 renal = test system: 786-0 renal
A549 NSCLC = test system: A549 NSCLC
SK-MEL-28 melanoma = test system: SK-MEL-28 melanoma
HOP-92 NSCLC = test system: HOP-92 NSCLC
MDA-MB-435 = test system: MDA-MB-435
SN12C renal = test system: SN12C renal
COLO 205 colon = test system: COLO 205 colon
HT29 colon = test system: HT29 colon
UACC-62 melanoma = test system: UACC-62 melanoma
SW-620 colon = test system: SW-620 colon
OVCAR-5 ovarian = test system: OVCAR-5 ovarian
NCI/ADR-RES ovarian = test system: NCI/ADR-RES ovarian
SF-539 CNS = test system: SF-539 CNS
UO-31 renal = test system: UO-31 renal
MCF7 breast = test system: MCF7 breast
HL-60(TB) leukemia = test system: HL-60(TB) leukemia
CCRF-CEM leukemia = test system: CCRF-CEM leukemia
MOLT-4 leukemia = test system: MOLT-4 leukemia
HCT-15 colon = test system: HCT-15 colon
PC-3 prostate = test system: PC-3 prostate
OVCAR-4 ovarian = test system: OVCAR-4 ovarian
MALME-3M melanoma = test system: MALME-3M melanoma

Cc1ccc(-c2csc(N(C(=O)N3CCN(c4cc5c(cc4F)c(=O)c(C(=O)O)cn5C4CC4)CC3)c3ccccc3)n2)cc1
11500 nM: TGI (TK-10 renal)
1750 nM: TGI (SK-MEL-2 melanoma)
1860 nM: TGI (SF-295 CNS)
1830 nM: TGI (786-0 renal)
> 100000 nM: TGI (M14 melanoma) | TGI (NCI-H460 lung) | TGI (DU-145 prostate) | TGI (CAKI-1 renal) | TGI (KM12 colon) | TGI (K-562 leukemia) | TGI (EKVX NSCLC) | TGI (OVCAR-3 ovarian) | TGI (RPMI-8226 leukemia) | TGI (ACHN renal) | TGI (NCI-H23 lung) | TGI (OVCAR-8 ovarian) | TGI (HCC-2998 colon) | TGI (SK-MEL-5 melanoma) | TGI (NCI-H522 lung) | TGI (SF-268 CNS) | TGI (LOX IMVI melanoma) | TGI (IGROV1 ovarian) | TGI (SR leukemia) | TGI (T-47D breast) | TGI (NCI-H226 lung) | TGI (HS 578T breast) | TGI (UACC-257 melanoma) | TGI (HCT-116 colon) | TGI (A549 NSCLC) | TGI (SK-MEL-28 melanoma)
798 nM: TGI (HOP-92 NSCLC)
787 nM: TGI (SK-OV-3 ovarian)
> 60000 nM: TGI (SNB-19 CNS)
inactive: GI50 (DU-145 prostate) 460 nM | GI50 (HCC-2998 colon) 537 nM | GI50 (SK-MEL-5 melanoma) 541 nM | GI50 (SF-268 CNS) 432 nM | GI50 (HS 578T breast) 428 nM | GI50 (TK-10 renal) 541 nM | GI50 (SK-MEL-28 melanoma) 582 nM
6730 nM: TGI (U251 CNS)
active: GI50 (M14 melanoma) 394 nM | GI50 (NCI-H460 lung) 331 nM | GI50 (CAKI-1 renal) 373 nM | GI50 (KM12 colon) 371 nM | GI50 (K-562 leukemia) 269 nM | GI50 (EKVX NSCLC) 381 nM | GI50 (SNB-19 CNS) 383 nM | GI50 (OVCAR-3 ovarian) 391 nM | GI50 (A498 renal) 36.3 nM | GI50 (RPMI-8226 leukemia) 368 nM | GI50 (SK-MEL-2 melanoma) 344 nM | GI50 (ACHN renal) 278 nM | GI50 (NCI-H23 lung) 317 nM | GI50 (SK-OV-3 ovarian) 252 nM | GI50 (OVCAR-8 ovarian) 405 nM | GI50 (SNB-75 CNS) 357 nM | GI50 (NCI-H522 lung) 292 nM | GI50 (HOP-62 NSCLC) 389 nM | GI50 (BT-549 breast) 320 nM | GI50 (RXF 393 renal) 368 nM | GI50 (SF-295 CNS) 303 nM | GI50 (LOX IMVI melanoma) 305 nM | GI50 (IGROV1 ovarian) 338 nM | GI50 (SR leukemia) 238 nM | GI50 (T-47D breast) 381 nM | GI50 (U251 CNS) 368 nM | GI50 (NCI-H226 lung) 338 nM | GI50 (UACC-257 melanoma) 372 nM | GI50 (HCT-116 colon) 333 nM | GI50 (786-0 renal) 292 nM | GI50 (A549 NSCLC) 372 nM | GI50 (HOP-92 NSCLC) 213 nM
4170 nM: TGI (SNB-75 CNS)
3310 nM: TGI (BT-549 breast)
> 46300 nM: TGI (HOP-62 NSCLC)
443 nM: TGI (A498 renal)
20500 nM: TGI (RXF 393 renal)

CC(=O)c1ccc(-c2oc(-c3ccccc3)cc2-c2ccc3c(c2)OCO3)s1
5070 nM: TGI (CAKI-1 renal)
2990 nM: TGI (CCRF-CEM leukemia)
6080 nM: TGI (MDA-MB-435)
2360 nM: TGI (HL-60(TB) leukemia)
89900 nM: TGI (NCI-H23 lung)
> 100000 nM: TGI (M14 melanoma) | TGI (NCI-H460 lung) | TGI (DU-145 prostate) | TGI (SN12C renal) | TGI (COLO 205 colon) | TGI (K-562 leukemia) | TGI (EKVX NSCLC) | TGI (HT29 colon) | TGI (UACC-62 melanoma) | TGI (OVCAR-3 ovarian) | TGI (A498 renal) | TGI (RPMI-8226 leukemia) | TGI (ACHN renal) | TGI (SK-OV-3 ovarian) | TGI (SW-620 colon) | TGI (OVCAR-8 ovarian) | TGI (SNB-75 CNS) | TGI (HCC-2998 colon) | TGI (SK-MEL-5 melanoma) | TGI (HOP-62 NSCLC) | TGI (OVCAR-5 ovarian) | TGI (SF-268 CNS) | TGI (NCI/ADR-RES ovarian) | TGI (RXF 393 renal) | TGI (SF-539 CNS) | TGI (UO-31 renal) | TGI (SF-295 CNS) | TGI (IGROV1 ovarian) | TGI (SR leukemia) | TGI (T-47D breast) | TGI (U251 CNS) | TGI (NCI-H226 lung) | TGI (MCF7 breast) | TGI (HS 578T breast) | TGI (TK-10 renal) | TGI (UACC-257 melanoma) | TGI (HCT-116 colon) | TGI (786-0 renal) | TGI (HOP-92 NSCLC) | TGI (MOLT-4 leukemia)

CCCCCCCCN(CCCCCCCC)C(=N)c1ccnc2ccccc12
2990 nM: TGI (SF-539 CNS)
2680 nM: TGI (SN12C renal) | TGI (EKVX NSCLC)
2780 nM: TGI (ACHN renal)
2920 nM: TGI (NCI-H522 lung) | TGI (SF-295 CNS)
2650 nM: TGI (UACC-62 melanoma)
2880 nM: TGI (HOP-62 NSCLC)
2360 nM: TGI (SNB-75 CNS) | TGI (RXF 393 renal)
2320 nM: TGI (HOP-92 NSCLC)
active: GI50 (M14 melanoma) 336 nM | GI50 (MDA-MB-435) 302 nM | GI50 (HCT-15 colon) 348 nM | GI50 (COLO 205 colon) 200 nM | GI50 (HT29 colon) 292 nM | GI50 (MCF7 breast) 261 nM | GI50 (SK-MEL-28 melanoma) 312 nM
2440 nM: TGI (CAKI-1 renal)
3170 nM: TGI (SNB-19 CNS)
2520 nM: TGI (PC-3 prostate)
2540 nM: TGI (OVCAR-3 ovarian)
2850 nM: TGI (A498 renal)
3110 nM: TGI (A549 NSCLC)
3030 nM: TGI (NCI-H23 lung)
3050 nM: TGI (OVCAR-5 ovarian)
1330 nM: TGI (HCT-15 colon)
4810 nM: TGI (HS 578T breast)
1060 nM: TGI (HT29 colon)
1210 nM: TGI (MCF7 breast)
inactive: GI50 (DU-145 prostate) 1080 nM | GI50 (CAKI-1 renal) 1170 nM | GI50 (SN12C renal) 1160 nM | GI50 (EKVX NSCLC) 1280 nM | GI50 (SNB-19 CNS) 1550 nM | GI50 (UACC-62 melanoma) 1250 nM | GI50 (OVCAR-3 ovarian) 1200 nM | GI50 (A498 renal) 1410 nM | GI50 (SK-MEL-2 melanoma) 1780 nM | GI50 (ACHN renal) 1370 nM | GI50 (NCI-H23 lung) 1490 nM | GI50 (SK-OV-3 ovarian) 1610 nM | GI50 (OVCAR-8 ovarian) 1580 nM | GI50 (SNB-75 CNS) 1010 nM | GI50 (NCI-H522 lung) 1480 nM | GI50 (HOP-62 NSCLC) 1420 nM | GI50 (OVCAR-5 ovarian) 1500 nM | GI50 (SF-268 CNS) 1310 nM | GI50 (NCI/ADR-RES ovarian) 1150 nM | GI50 (PC-3 prostate) 1160 nM | GI50 (RXF 393 renal) 874 nM | GI50 (SF-539 CNS) 1540 nM | GI50 (UO-31 renal) 953 nM | GI50 (OVCAR-4 ovarian) 1200 nM | GI50 (SF-295 CNS) 1520 nM | GI50 (MALME-3M melanoma) 1120 nM | GI50 (T-47D breast) 1240 nM | GI50 (U251 CNS) 1230 nM | GI50 (HS 578T breast) 1710 nM | GI50 (TK-10 renal) 1440 nM | GI50 (UACC-257 melanoma) 1750 nM | GI50 (HCT-116 colon) 1240 nM | GI50 (786-0 renal) 1020 nM | GI50 (A549 NSCLC) 1580 nM | GI50 (HL-60(TB) leukemia) 1300 nM | GI50 (CCRF-CEM leukemia) 466 nM | GI50 (HOP-92 NSCLC) 1020 nM
3000 nM: TGI (SK-OV-3 ovarian)
2930 nM: TGI (T-47D breast)
2550 nM: TGI (HCT-116 colon)
2830 nM: TGI (TK-10 renal)
1070 nM: TGI (MDA-MB-435) | TGI (SK-MEL-28 melanoma)
2290 nM: TGI (UO-31 renal)
3350 nM: TGI (SK-MEL-2 melanoma) | TGI (UACC-257 melanoma)
445 nM: TGI (COLO 205 colon)
2590 nM: TGI (MALME-3M melanoma)
2890 nM: TGI (SF-268 CNS)
2600 nM: TGI (OVCAR-4 ovarian)
1360 nM: TGI (M14 melanoma)
2200 nM: TGI (CCRF-CEM leukemia)
2370 nM: TGI (786-0 renal)
3270 nM: TGI (OVCAR-8 ovarian)
2970 nM: TGI (HL-60(TB) leukemia)
2500 nM: TGI (NCI/ADR-RES ovarian)
2580 nM: TGI (U251 CNS)
2310 nM: TGI (DU-145 prostate)
